Laboratory results reported in patent US20230175072A1, “3 FLAP OKAZAKI FRAGMENTS AND USES THEREOF” (City of Hope, priority 2021, published 2023).
“Also recorded” adds a separate entry of the source. Like-named read-outs stand apart in the source and are kept apart here.

Columns and labels:
yeast cells [1] = experiment: MMS sensitivity spot assay; assay type: cell-based, Saccharomyces cerevisiae; conditions: YPD plates, 30° C., 48 h
Protocol: FIG. 6. pol3 ITD-bearing rad27Δ revertant mutations or pol3 ITD knock-in of rad27Δ cells partially reverses MMS-induced lethality. Viability of WT, pol3 ITD knock-in, rad27Δ, rad27Δ with the pol3 ITD knock-in mutation, and a rad27Δ revertant carrying a pol3 ITD mutation was analyzed using spot assays. Yeast cells of the indicated genetic backgrounds were serially diluted and spotted on YPD plates containing the indicated level of MMS. The plates were incubated at 30° C. for 48 hours.
To assay the MMS sensitivity of different yeast strains, 0.005%, 0.01%, 0.015% or 0.02% MMS was added to YPD plates after autoclaving, and plates were used the same day. Yeast cells were serially diluted and spotted on YPD plates containing different levels of MMS. The plates were incubated at 30° C. for 48 h.

yeast cells [2] = conditions: rad27Δ cells; cited from earlier work
Chk1 = molecular target: T1, Chk1 (Mus musculus, UniProt O35280); experiment: Chk1 inhibition and lung cancer development in FEN1 FFAA mutant mice; assay type: in vivo; conditions: 0.025 mg/kg intraperitoneal once per week for four weeks from 6 months, lung tumors assessed at 16 months, vs DMSO
T1 construct: from tissue; host or cells: live mice (129S1 background), WT and FEN1 WT/FFAA heterozygotes
T1 sequence (O35280 1-476): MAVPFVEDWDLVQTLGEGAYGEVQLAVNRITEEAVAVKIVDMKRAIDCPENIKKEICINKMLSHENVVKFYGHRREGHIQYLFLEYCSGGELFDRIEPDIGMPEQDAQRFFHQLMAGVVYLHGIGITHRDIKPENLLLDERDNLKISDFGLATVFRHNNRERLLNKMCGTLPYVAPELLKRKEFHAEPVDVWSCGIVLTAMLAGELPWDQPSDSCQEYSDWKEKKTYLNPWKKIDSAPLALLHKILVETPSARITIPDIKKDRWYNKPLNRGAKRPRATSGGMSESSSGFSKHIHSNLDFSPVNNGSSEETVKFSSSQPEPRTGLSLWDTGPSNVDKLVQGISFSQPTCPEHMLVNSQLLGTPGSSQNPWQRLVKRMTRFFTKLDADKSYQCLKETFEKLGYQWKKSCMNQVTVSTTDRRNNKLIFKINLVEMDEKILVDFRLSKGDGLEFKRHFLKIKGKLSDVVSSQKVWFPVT
Excerpt: FEN1 F343A/F344A (FFAA) heterozygous mice (WT/FFAA, 129S1 genetic background), which develop lung adenoma or adenocarcinoma at a high frequency (32), were in-line bred and housed in the Animal Resource Center at City of Hope. All experimental protocols involving animals were approved by the Institutional Animal Care and Use Committee of City of Hope in compliance with the Public Health Service policies of the United States. To determine the extent to which inhibiting Chk1 suppressed cancer development in FEN1 FFAA mutant mice, randomly selected WT or WT/FFAA male or female mice (6 months old) were treated with 0.025 mg/kg body weight SB218078 (Chk1 inhibitor) in DMSO via intraperitoneal injection once per week for four weeks. Untreated control mice were injected with the same volume of DMSO (vehicle). All mice were euthanized at 16 months of age. The presence of lung tumors was determined using anatomic and histopathological analysis in blinding fashion. For whole exome sequencing (WES) studies, WT or FEN1 A159V/WT mice (33) were euthanized at 16 months, and normal lung or lung tumors were dissected for total genomic DNA extraction and purification.
Two-tailed student's t-test was used to determine significance in differences in mutation rate assays and the hypergeometric test was used to determine the significance in the enrichment of a signaling pathway. […]

COS(C)(=O)=O [MMS, methyl methanesulfonate]
MMS sensitivity of yeast cells (yeast cells [1]; pol3 ITD cells in a WT RAD27 background, high concentrations of MMS): sensitive
MMS sensitivity of yeast cells (yeast cells [1]; rad27Δ revertant cells and rad27Δ pol3 ITD knock-in mutant cells, higher concentrations (≥0.01%) MMS): sensitive
MMS sensitivity of yeast cells (yeast cells [1]; rad27Δ revertant cells and rad27Δ pol3 ITD knock-in mutant cells, low concentration (0.005%) MMS): resistant
MMS sensitivity of yeast cells (yeast cells [2]): sensitive

O=C1NC(=O)c2c1c1c3ccccc3n3c1c1c2c2ccccc2n1C1CCC3O1 [SB218078]
spontaneous lung cancer development (Chk1; WT mice): not in WT mice
spontaneous lung cancer development (Chk1; WT/FFAA (FEN1 F343A/F344A heterozygous) mice, 0.025 mg/kg): significantly inhibited spontaneous lung cancer development; also recorded: blocks lung cancer development
